Laboratory results from patent US9126984B2, “4-(indol-3-yl)-pyrazole derivatives, pharmaceutical compositions and methods for use” (ITEOS THERAPEUTICS, priority 2013, dated 2015).

Legend:
[1] = target: T1, murine mastocytoma P815 cells overexpressing hTDO2 (Homo sapiens, UniProt P48775); assay: Cellular assay for TDO2 activity determination; type: cell-based; details: P815 cells overexpressing hTDO2, overnight incubation at 37° C., kynurenine absorbance at 480 nm
T1 construct: expressed in transfected cells; host or cells: murine mastocytoma P815 cells
T1 sequence (P48775 whole entry): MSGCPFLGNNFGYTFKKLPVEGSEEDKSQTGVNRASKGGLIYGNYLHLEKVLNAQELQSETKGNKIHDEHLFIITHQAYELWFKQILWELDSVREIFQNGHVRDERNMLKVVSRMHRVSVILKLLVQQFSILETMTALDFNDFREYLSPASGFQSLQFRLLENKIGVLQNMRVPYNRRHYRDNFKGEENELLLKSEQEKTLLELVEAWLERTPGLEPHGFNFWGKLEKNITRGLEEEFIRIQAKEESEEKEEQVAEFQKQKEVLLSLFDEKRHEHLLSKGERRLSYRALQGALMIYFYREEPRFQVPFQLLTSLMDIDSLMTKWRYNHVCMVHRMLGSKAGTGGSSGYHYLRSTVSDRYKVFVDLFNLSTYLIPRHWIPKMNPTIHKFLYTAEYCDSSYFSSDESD
Protocol: The assay was performed in 96-well flat bottom plates seeded with murine mastocytoma P815 cells overexpressing hTDO2 (prepared as described in Pilotte et al., PNAS, 2012, 109(7), 2497-2502), at a concentration of 5×10^4 cells/well in a final volume of 200 μL. To determine TDO or IDO activity, the cells were incubated overnight at 37° C. at 5% CO2 in IMDM (Invitrogen) supplemented with 2% FBS and 2% penicillin/streptomycin in the presence of the compounds of the present invention, at different concentrations.
The plates were then centrifuged 5 min at 1000 rpm, and 100 μL of the supernatant were collected in a conical plate, 30 uL of TCA 30% were added and a further centrifugated at 3000×g for 10 minutes. 100 μL of the supernatant were collected in a flat bottomed plate and 100 μL of 2% (w/v) 4-(dimethylamino)-benzaldehyde in acetic acid and incubated for 5 min at room temperature. Kynurenine concentrations were determined by measuring the absorbance at 480 nm. A standard curve was made with pure kynurenine. The TDO activity was measured as described above using ten serial concentrations of the compounds of the present invention. Data were fitted using the Prism software (GraphPad Software, Inc.).

[2] = target: T2, human recombinant TDO2 enzyme (Homo sapiens, UniProt P48775); assay: Assay for TDO2 enzymatic activity determination; type: biochemical; details: human recombinant TDO2, L-Trp 1 mM, room temperature one hour, kynurenine absorbance at 480 nm
T2 construct: made in house
T2 sequence (P48775 whole entry): as above
Protocol: To measure the TDO2 activity, the reaction mixture contained (final concentrations) potassium phosphate buffer (50 mM, pH 7.5), ascorbic acid (0.25 M), methylene blue (0.125 μM), catalase (40 units/mL, from bovine liver, Sigma), and human recombinant TDO2 enzyme (prepared as described in Dolusic et al. J. Med. Chem.; 2011, 54, 5320-5334; 0.9 μg) without or with the compounds of the present invention embodiments at the indicated concentrations (total volume 112.5 μL). The reaction was initiated by the addition of 37.5 μL of L-Trp (final concentration 1 mM) at room temperature. The reaction was conducted at room temperature during one hour and stopped by the addition of 30 μL of 30% (w/v) trichloroacetic acid.
To convert N-formylkynurenine into kynurenine, the reaction mixture was incubated at 65° C. for 30 min. Then 150 μL of the reaction mixture was mixed with 120 μL, of 2.5% (w/v) 4-(dimethylamino)-benzaldehyde in acetic acid and incubated for 5 min at room temperature. Kynurenine concentrations were determined by measuring the absorbance at 480 nm. A standard curve was made with pure kynurenine. The TDO activity was measured as described above using ten serial concentrations of certain embodiments of the compounds of the present invention. Data were fitted using the Prism software (GraphPad Software, Inc.).

SMILES | IC50 [1] | IC50 [2] | melting point
Fc1cc2[nH]cc(-c3cnn(CC4CCNCC4)c3)c2cc1F [Example 44, 5,6-difluoro-3-(1-(piperidin-4-ylmethyl)-1H-pyrazol-4-yl)-1H-indole] | < 1000 nM | 1000 to 10000 nM | 167.1 to 168.9 °C
CS(=O)(=O)CCn1cc(-c2c[nH]c3cc(F)ccc23)cn1 [Example 31, 6-fluoro-3-(1-(2-(methylsulfonyl)ethyl)-1H-pyrazol-4-yl)-1H-indole] | < 1000 nM | 1000 to 10000 nM | 153.3 to 155.1 °C
NC(=O)CCn1cc(-c2c[nH]c3cc(F)ccc23)cn1 [Example 7, 3-(4-(6-fluoro-1H-indol-3-yl)-1H-pyrazol-1-yl)propanamide] | < 1000 nM | < 1000 nM | 173.3 to 175 °C
CC(Cn1cc(-c2c[nH]c3cc(F)ccc23)cn1)C(N)=O (single isomer, unassigned) [Example 35, 3-(4-(6-fluoro-1H-indol-3-yl)-1H-pyrazol-1-yl)-2-methylpropanamide] | < 1000 nM | 1000 to 10000 nM | 184.5 to 185.5 °C
CNCCn1cc(-c2c[nH]c3cc(F)ccc23)cn1 [Example 24, 2-(4-(6-fluoro-1H-indol-3-yl)-1H-pyrazol-1-yl)-N-methylethanamine] | 1000 to 10000 nM | < 1000 nM | 94.2 to 95.2 °C

Second part, the compound after the results:

IC50 [1] | IC50 [2] | melting point | SMILES
1000 to 10000 nM | 1000 to 10000 nM | 193.1 to 194.1 °C | O=S1(=O)CCC(Cn2cc(-c3c[nH]c4cc(F)ccc34)cn2)CC1 [Example 60, 4-((4-(6-fluoro-1H-indol-3-yl)-1H-pyrazol-1-yl)methyl)tetrahydro-2H-thiopyran 1,1-dioxide]
< 1000 nM | 1000 to 10000 nM | 222.8 to 223.7 °C | CN1CCC(n2cc(-c3c[nH]c4cc(F)ccc34)cn2)CC1 [Example 91, 6-fluoro-3-(1-(1-methylpiperidin-4-yl)-1H-pyrazol-4-yl)-1H-indole]
1000 to 10000 nM | 1000 to 10000 nM | 138.9 to 139.6 °C | Fc1ccc2c(-c3cnn(CC4CCOCC4)c3)c[nH]c2c1 [Example 58, 6-fluoro-3-(1-((tetrahydro-2H-pyran-4-yl)methyl)-1H-pyrazol-4-yl)-1H-indole]
< 1000 nM | 1000 to 10000 nM | 240.1 to 241.8 °C | Fc1ccc2c(-c3cnn(C4CCNCC4)c3)c[nH]c2c1 [Example 78, 6-fluoro-3-(1-(piperidin-4-yl)-1H-pyrazol-4-yl)-1H-indole]
– | 1000 to 10000 nM | 190.7 to 191.4 °C | O=C(C1CC1)N1CCC(n2cc(-c3c[nH]c4cc(F)ccc34)cn2)CC1 [Example 88, cyclopropyl(4-(4-(6-fluoro-1H-indol-3-yl)-1H-pyrazol-1-yl)piperidin-1-yl)methanone]
< 1000 nM | 1000 to 10000 nM | 183.2 to 184.5 °C | CC(=O)N1CCC(n2cc(-c3c[nH]c4cc(F)ccc34)cn2)CC1 [Example 89, 1-(4-(4-(6-fluoro-1H-indol-3-yl)-1H-pyrazol-1-yl)piperidin-1-yl)ethanone]
